Data on one molecule can be found in ChEMBL document CHEMBL5096222, “Discovery of a Trifluoromethoxy Cyclopentanone Benzothiazole Receptor-Interacting Protein Kinase 1 Inhibitor as the Treatment for Alzheimer's Disease” (J Med Chem, 2022).

A short description of series [1]: Toxicity in C57BL/6 mouse assessed as effect on liver by H and E staining based analysis. The series is classed as tissue-based. The settings on record: in vivo.
The test system of series [2] is Mus musculus. Put plainly: Antialzheimer activity against STZ induced C57BL/6 mouse model of cognitive dysfunction assessed as increase in central distance of mouse at 1 mg/kg, IG administered once daily for 7 days. It counts as functional, organism-based. The following applies: time 7.0 day.
Series [3] addresses T1, Receptor-interacting serine/threonine-protein kinase 1 (Homo sapiens) (UniProt Q13546).
T1 sequence (whole entry): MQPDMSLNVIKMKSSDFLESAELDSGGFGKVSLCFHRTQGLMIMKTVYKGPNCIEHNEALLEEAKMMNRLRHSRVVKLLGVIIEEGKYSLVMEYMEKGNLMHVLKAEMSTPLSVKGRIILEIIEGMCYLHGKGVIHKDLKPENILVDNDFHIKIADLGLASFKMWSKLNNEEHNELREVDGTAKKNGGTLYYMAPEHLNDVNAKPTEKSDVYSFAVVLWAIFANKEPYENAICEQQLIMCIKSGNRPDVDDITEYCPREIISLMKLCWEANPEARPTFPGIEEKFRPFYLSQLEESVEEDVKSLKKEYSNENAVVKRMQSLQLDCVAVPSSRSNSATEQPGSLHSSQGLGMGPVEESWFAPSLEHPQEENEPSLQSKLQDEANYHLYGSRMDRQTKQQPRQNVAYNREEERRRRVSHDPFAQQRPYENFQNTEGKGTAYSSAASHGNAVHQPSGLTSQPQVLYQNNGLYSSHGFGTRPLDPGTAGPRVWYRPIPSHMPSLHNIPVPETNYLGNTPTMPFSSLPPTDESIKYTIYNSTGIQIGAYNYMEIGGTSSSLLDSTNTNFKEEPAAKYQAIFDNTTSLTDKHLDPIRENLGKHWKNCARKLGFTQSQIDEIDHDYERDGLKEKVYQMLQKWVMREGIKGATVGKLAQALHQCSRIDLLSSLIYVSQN
Put plainly: Inhibition of RIPK1 in human HT-29 cells assessed as reduction in TSZ induced necroptosis at 25 to 50 nM pretreated with compound followed by TSZ stimulation for 8 hrs by celltiter-glo luminescent cell viability assay relative to control. It counts as cell-based. The settings on record: dose 25-50 nM. Background: ATP-based viability assays read luminescence as a measure of living cells.

For series [4], the species on record is Mus musculus. In words: Antialzheimer activity against STZ induced C57BL/6 mouse model of cognitive dysfunction assessed as downregulation of IL-1 beta in hippocampus. It counts as functional, organism-based.
The target in series [5] is Receptor-interacting serine/threonine-protein kinase 3 (Homo sapiens, UniProt Q9Y572). In words: Binding affinity to recombinant human wild type partial length RIPK3 (M1 to Q307 residues) expressed in bacterial expression system by KINOMEscan TM assay.
The target in series [6] is T2, Receptor-interacting serine/threonine-protein kinase 1 (Homo sapiens, UniProt Q13546).
T2 sequence (Q13546 whole entry): T1 sequence (whole entry)
In words: Binding affinity to recombinant human wild type partial length RIPK1 (M1 to K305 residues) expressed in bacterial expression system by KINOMEscan TM assay.

In series [7] the test system is Mus musculus. In words: Antialzheimer activity against STZ induced C57BL/6 mouse model of cognitive dysfunction assessed as increase in percentage of quadrant time at 1 mg/kg, IG administered once daily for 7 days. The series is classed as functional, organism-based. The settings on record: time 7.0 day.
Series [8] has as its system Mus musculus. In words: Anti-necroptosis activity against TNFalpha-induced C57BL/6 mouse model of systemic inflammatory response syndrome assessed as reduction in IL-1 beta level administered IG pretreated for 1 hr followed by TNFalpha stimulation for 2 hrs. The series is classed as functional, organism-based. The settings on record: dose 10-40 mg/kg, time 3.0 hrs, DDE = dose-dependent effect.

In series [9] the test system is HT-29. Put plainly: Anti-necroptotic activity in TSZ induced human HT-29 cells assessed as increase in cell viability pretreated with compound followed by TSZ stimulation and measured after 16 hrs by celltiter-glo luminescent cell viability assay. The series is classed as functional, cell-based.
Series [10] deals with Mus musculus. In words: Antialzheimer activity against STZ induced C57BL/6 mouse model of cognitive dysfunction assessed as reduction in latency at 1 mg/kg, IG administered once daily for 7 days. The series is classed as functional, organism-based. The following applies: time 7.0 day.
Series [11] is filed under the species Mus musculus. In words: Antialzheimer activity against STZ induced C57BL/6 mouse model of cognitive dysfunction assessed as decrease in p-Tau level in frontal cortex by Western blot analysis. The series is classed as functional, organism-based. (In western blotting, separated proteins are transferred to a membrane and probed.)
A short description of series [12]: Toxicity in C57BL/6 mouse assessed as effect on kidney by H and E staining based analysis. The series is classed as tissue-based. The following applies: in vivo.
The nature of series [13]: Cytotoxicity against mouse primary neurons assessed as reduction in cell viability at 0.256 to […] by celltiter-glo luminescent cell viability assay. It counts as toxicity, cell-based. The following applies: neuron, dose 0.256-[…].
Series [14] is filed under the species Mus musculus. In words: Antialzheimer activity against STZ induced C57BL/6 mouse model of cognitive dysfunction assessed as decrease in p-Tau level in hippocampus by Western blot analysis. The series is classed as functional, organism-based.
For series [15], the system named is HT-29. In words: Inhibition of RIPK1 expression in TSZ induced human HT-29 cells at 1 uM pretreated with compound followed by TSZ stimulation upto 6 hrs by immunoblotting analysis. It counts as functional, cell-based.
Series [16] is filed under the species Mus musculus. In words: Antialzheimer activity against STZ induced C57BL/6 mouse model of cognitive dysfunction assessed as restoration of hippocampal cell number by Nissl staining based analysis. It counts as functional, organism-based.
Series [17] concerns Mus musculus. Put plainly: Antialzheimer activity against STZ induced C57BL/6 mouse model of cognitive dysfunction assessed as increase in quadrant time at 1 mg/kg, IG administered once daily for 7 days. The following applies: time 7.0 day. The series is classed as functional, organism-based.
Series [18] deals with T3, Mixed lineage kinase domain-like protein (Homo sapiens) (UniProt Q8NB16).
T3 sequence (whole entry): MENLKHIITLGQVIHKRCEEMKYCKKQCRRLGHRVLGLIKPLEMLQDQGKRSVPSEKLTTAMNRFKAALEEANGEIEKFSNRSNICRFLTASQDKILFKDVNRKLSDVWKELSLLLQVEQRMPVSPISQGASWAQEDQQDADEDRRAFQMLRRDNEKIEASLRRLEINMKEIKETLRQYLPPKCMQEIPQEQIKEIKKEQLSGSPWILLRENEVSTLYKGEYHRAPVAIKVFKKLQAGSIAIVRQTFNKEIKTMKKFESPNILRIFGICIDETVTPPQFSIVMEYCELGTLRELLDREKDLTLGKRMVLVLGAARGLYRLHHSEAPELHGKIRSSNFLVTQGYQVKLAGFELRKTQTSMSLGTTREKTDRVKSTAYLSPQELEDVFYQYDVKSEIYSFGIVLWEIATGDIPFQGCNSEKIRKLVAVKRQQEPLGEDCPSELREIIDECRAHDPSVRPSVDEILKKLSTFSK
In words: Inhibition of MLKL phosphorylation in TSZ induced human HT-29 cells at 1 uM pretreated with compound followed by TSZ stimulation upto 6 hrs by immunoblotting analysis. The series is classed as cell-based.

Series [19] is filed under the species Mus musculus. In words: Antialzheimer activity against STZ induced C57BL/6 mouse model of cognitive dysfunction assessed as decrease of TNF-alpha expression in frontal cortex. The series is classed as functional, organism-based.
The nature of series [20]: Toxicity in C57BL/6 mouse assessed as effect on heart by H and E staining based analysis. The following applies: in vivo. It counts as tissue-based.

Activity calls are given as the source filed them. The calls are words filed in the database; no cut-off is given here.

Chain of Receptor-interacting serine/threonine-protein kinase 3 (Q9Y572 whole entry, the tested form may be a part): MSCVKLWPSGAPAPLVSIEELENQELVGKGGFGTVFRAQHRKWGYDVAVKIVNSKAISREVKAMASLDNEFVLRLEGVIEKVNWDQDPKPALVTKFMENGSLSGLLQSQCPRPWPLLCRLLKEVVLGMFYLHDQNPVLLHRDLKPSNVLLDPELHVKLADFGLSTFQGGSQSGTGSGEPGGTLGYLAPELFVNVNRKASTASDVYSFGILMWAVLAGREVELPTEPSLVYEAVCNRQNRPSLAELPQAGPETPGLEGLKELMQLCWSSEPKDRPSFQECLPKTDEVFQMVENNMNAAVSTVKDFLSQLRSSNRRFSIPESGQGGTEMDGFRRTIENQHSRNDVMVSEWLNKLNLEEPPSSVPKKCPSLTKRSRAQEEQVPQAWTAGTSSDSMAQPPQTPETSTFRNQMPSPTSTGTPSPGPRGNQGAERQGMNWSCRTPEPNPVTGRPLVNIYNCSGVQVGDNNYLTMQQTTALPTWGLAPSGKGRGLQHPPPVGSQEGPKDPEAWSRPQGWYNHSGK

As usually defined, the inhibition is the percentage by which the read-out fell short of the control. For orientation: Kd means the concentration at which binding is half-saturated. The EC50 is the concentration giving half of the maximal effect. For the molecule `O=C1CC(C(=O)Nc2nc3cc(Oc4ccc(F)c(NC(=O)Cc5cccc(OC(F)(F)F)c5)c4)c(F)cc3s2)C1`, the Activity entry in [1] was “Non-Toxic”; with Mus musculus [8], “Dde”; in series [12], “Non-Toxic”; in series [13] it was “Non-Toxic”; in series [20] it was “Non-Toxic”. In addition, the result in the series on Mus musculus [2], in the series filed under Mus musculus [4], in the series with Mus musculus [7], in the series with Mus musculus [10], in the series listed under Mus musculus [11] and in the series listed under Mus musculus [14] was Active. Further, the result in the series listed under Mus musculus [16], in the series on Mus musculus [17] and in the series filed under Mus musculus [19] was Active. The inhibition in [3] was found to be 100%. The Kd was above 5000 nM in [5] and 8.6 nM in [6]. Moreover, the EC50 in the series with HT-29 [9] was determined as 2 nM. Further, the inhibition entry (in the series on HT-29 [15]; in series [18]) was “Active” throughout.
